From ChEMBL document CHEMBL1201862, “PubChem BioAssay data set” (2004)
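Protocol summary: plate cells (96-well), add compound at 5 concentrations, incubate 48 h, interpolate endpoints linearly. GI50 marks 50% less growth.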 Activity calls are given as the source filed them. Rule as the data show it: active = GI50 up to about 1.1 µM and inactive = higher.

How the values were obtained:
Assay in all cases: NCI-60 cell line screen, 48 h
786-0 = tested on: 786-0
A498 = tested on: A498
A549 = tested on: A549
ACHN = tested on: ACHN
BT-549 = tested on: BT-549
CAKI-1 = tested on: CAKI-1
COLO 205 = tested on: COLO 205
DU-145 = tested on: DU-145
EKVX = tested on: EKVX
HCC 2998 = tested on: HCC 2998
HCT-116 = tested on: HCT-116
HCT-15 = tested on: HCT-15
HOP-62 = tested on: HOP-62
HOP-92 = tested on: HOP-92
HT-29 = tested on: HT-29
Hs-578T = tested on: Hs-578T
IGROV-1 = tested on: IGROV-1
K562 = tested on: K562
KM12 = tested on: KM12
LOX IMVI = tested on: LOX IMVI
M14 = tested on: M14
MCF7 = tested on: MCF7
MDA-MB-231 = tested on: MDA-MB-231
MDA-MB-435 = tested on: MDA-MB-435
MDA-N = tested on: MDA-N
MOLT-4 = tested on: MOLT-4
Malme-3M = tested on: Malme-3M
NCI-H23 = tested on: NCI-H23
NCI-H460 = tested on: NCI-H460
NCI-H522 = tested on: NCI-H522
NCI/ADR-RES = tested on: NCI/ADR-RES
OVCAR-3 = tested on: OVCAR-3
OVCAR-4 = tested on: OVCAR-4
OVCAR-5 = tested on: OVCAR-5
OVCAR-8 = tested on: OVCAR-8
PC-3 = tested on: PC-3
RPMI-8226 = tested on: RPMI-8226
RXF 393 = tested on: RXF 393
SF-268 = tested on: SF-268
SF-295 = tested on: SF-295
SF-539 = tested on: SF-539
SK-MEL-28 = tested on: SK-MEL-28
SK-MEL-2 = tested on: SK-MEL-2
SK-MEL-5 = tested on: SK-MEL-5
SK-OV-3 = tested on: SK-OV-3
SN12C = tested on: SN12C
SNB-19 = tested on: SNB-19
SNB-75 = tested on: SNB-75
SR = tested on: SR
SW-620 = tested on: SW-620
T47D = tested on: T47D
TK-10 = tested on: TK-10
U-251 = tested on: U-251
UACC-257 = tested on: UACC-257
UACC-62 = tested on: UACC-62
UO-31 = tested on: UO-31
HL-60 = tested on: HL-60
NCI-H226 = tested on: NCI-H226

SMILES: Cc1ccccc1S(=O)(=O)OC1NS(=O)(=O)c2ccccc21 (centres undefined)
- GI50 (786-0): > 100 µM (inactive)
- GI50 (A498): > 100 µM (inactive)
- GI50 (A549): > 100 µM (inactive)
- GI50 (ACHN): > 100 µM (inactive)
- GI50 (BT-549): > 100 µM (inactive)
- GI50 (CAKI-1): > 100 µM (inactive)
- GI50 (COLO 205): > 100 µM (inactive)
- GI50 (DU-145): > 100 µM (inactive)
- GI50 (EKVX): > 100 µM (inactive)
- GI50 (HCC 2998): > 100 µM (inactive)
- GI50 (HCT-116): > 100 µM (inactive)
- GI50 (HCT-15): > 100 µM
- GI50 (HOP-62): > 100 µM (inactive)
- GI50 (HOP-92): > 100 µM (inactive)
- GI50 (HT-29): > 100 µM (inactive)
- GI50 (Hs-578T): > 100 µM (inactive)
- GI50 (IGROV-1): > 100 µM (inactive)
- GI50 (K562): > 100 µM (inactive)
- GI50 (KM12): > 100 µM (inactive)
- GI50 (LOX IMVI): > 100 µM (inactive)
- GI50 (M14): > 100 µM (inactive)
- GI50 (MCF7): > 100 µM (inactive)
- GI50 (MDA-MB-231): > 100 µM (inactive)
- GI50 (MDA-MB-435): > 100 µM (inactive)
- GI50 (MDA-N): > 100 µM (inactive)
- GI50 (MOLT-4): > 100 µM (inactive)
- GI50 (Malme-3M): > 100 µM (inactive)
- GI50 (NCI-H23): > 100 µM (inactive)
- GI50 (NCI-H460): > 100 µM (inactive)
- GI50 (NCI-H522): > 100 µM (inactive)
- GI50 (NCI/ADR-RES): > 100 µM (inactive)
- GI50 (OVCAR-3): > 100 µM (inactive)
- GI50 (OVCAR-4): > 100 µM (inactive)
- GI50 (OVCAR-5): > 100 µM (inactive)
- GI50 (OVCAR-8): > 100 µM (inactive)
- GI50 (PC-3): > 100 µM (inactive)
- GI50 (RPMI-8226): > 100 µM (inactive)
- GI50 (RXF 393): > 100 µM (inactive)
- GI50 (SF-268): > 100 µM (inactive)
- GI50 (SF-295): > 100 µM (inactive)
- GI50 (SF-539): > 100 µM (inactive)
- GI50 (SK-MEL-28): > 100 µM (inactive)
- GI50 (SK-MEL-2): > 100 µM (inactive)
- GI50 (SK-MEL-5): > 100 µM (inactive)
- GI50 (SK-OV-3): > 100 µM (inactive)
- GI50 (SN12C): > 100 µM (inactive)
- GI50 (SNB-19): > 100 µM (inactive)
- GI50 (SNB-75): > 100 µM (inactive)
- GI50 (SR): > 100 µM (inactive)
- GI50 (SW-620): > 100 µM (inactive)
- GI50 (T47D): > 100 µM (inactive)
- GI50 (TK-10): > 100 µM (inactive)
- GI50 (U-251): > 100 µM (inactive)
- GI50 (UACC-257): > 100 µM (inactive)
- GI50 (UACC-62): > 100 µM (inactive)
- GI50 (UO-31): > 100 µM (inactive)

SMILES: O=C(O)[C@H](c1ccccc1)[C@@H](C(=O)O)c1ccccc1
- GI50 (786-0): > 100 µM (inactive)
- GI50 (A498): > 100 µM (inactive)
- GI50 (A549): > 100 µM (inactive)
- GI50 (ACHN): > 100 µM (inactive)
- GI50 (BT-549): > 100 µM (inactive)
- GI50 (CAKI-1): > 100 µM (inactive)
- GI50 (COLO 205): > 100 µM (inactive)
- GI50 (DU-145): > 100 µM (inactive)
- GI50 (EKVX): > 100 µM (inactive)
- GI50 (HCC 2998): > 100 µM (inactive)
- GI50 (HCT-116): > 100 µM (inactive)
- GI50 (HCT-15): > 100 µM
- GI50 (HL-60): 0.228 µM (active)
- GI50 (HOP-62): > 100 µM (inactive)
- GI50 (HOP-92): > 100 µM (inactive)
- GI50 (HT-29): > 100 µM (inactive)
- GI50 (Hs-578T): > 100 µM (inactive)
- GI50 (IGROV-1): > 100 µM (inactive)
- GI50 (K562): > 100 µM (inactive)
- GI50 (KM12): > 100 µM (inactive)
- GI50 (LOX IMVI): > 100 µM (inactive)
- GI50 (M14): > 100 µM (inactive)
- GI50 (MCF7): > 100 µM (inactive)
- GI50 (MDA-MB-231): > 100 µM (inactive)
- GI50 (MDA-MB-435): > 100 µM (inactive)
- GI50 (MDA-N): > 100 µM (inactive)
- GI50 (MOLT-4): > 100 µM (inactive)
- GI50 (Malme-3M): > 100 µM (inactive)
- GI50 (NCI-H226): > 100 µM (inactive)
- GI50 (NCI-H23): > 100 µM (inactive)
- GI50 (NCI-H460): > 100 µM (inactive)
- GI50 (NCI-H522): > 100 µM (inactive)
- GI50 (NCI/ADR-RES): > 100 µM (inactive)
- GI50 (OVCAR-3): > 100 µM (inactive)
- GI50 (OVCAR-4): > 100 µM (inactive)
- GI50 (OVCAR-5): > 100 µM (inactive)
- GI50 (OVCAR-8): > 100 µM (inactive)
- GI50 (PC-3): > 100 µM (inactive)
- GI50 (RPMI-8226): > 100 µM (inactive)
- GI50 (RXF 393): > 100 µM (inactive)
- GI50 (SF-268): > 100 µM (inactive)
- GI50 (SF-295): > 100 µM (inactive)
- GI50 (SF-539): > 100 µM (inactive)
- GI50 (SK-MEL-28): > 100 µM (inactive)
- GI50 (SK-MEL-2): > 100 µM (inactive)
- GI50 (SK-MEL-5): > 100 µM (inactive)
- GI50 (SK-OV-3): > 100 µM (inactive)
- GI50 (SN12C): > 100 µM (inactive)
- GI50 (SNB-19): > 100 µM (inactive)
- GI50 (SNB-75): > 100 µM (inactive)
- GI50 (SR): > 100 µM (inactive)
- GI50 (SW-620): > 100 µM (inactive)
- GI50 (T47D): > 100 µM (inactive)
- GI50 (TK-10): > 100 µM (inactive)
- GI50 (U-251): > 100 µM (inactive)
- GI50 (UACC-257): > 100 µM (inactive)
- GI50 (UACC-62): > 100 µM (inactive)
- GI50 (UO-31): > 100 µM (inactive)
